Source: patent US12692262B2, “Substituted ureas as orexin receptor agonists” (Merck Sharp & Dohme LLC, priority 2020, dated 2026)

Target: T1, human OX2R (Homo sapiens, UniProt O43614)
T1 construct: expressed in transfected cells; host or cells: CHO (Chinese hamster ovary) cells grown under G418 selection
T1 sequence (O43614 1-444): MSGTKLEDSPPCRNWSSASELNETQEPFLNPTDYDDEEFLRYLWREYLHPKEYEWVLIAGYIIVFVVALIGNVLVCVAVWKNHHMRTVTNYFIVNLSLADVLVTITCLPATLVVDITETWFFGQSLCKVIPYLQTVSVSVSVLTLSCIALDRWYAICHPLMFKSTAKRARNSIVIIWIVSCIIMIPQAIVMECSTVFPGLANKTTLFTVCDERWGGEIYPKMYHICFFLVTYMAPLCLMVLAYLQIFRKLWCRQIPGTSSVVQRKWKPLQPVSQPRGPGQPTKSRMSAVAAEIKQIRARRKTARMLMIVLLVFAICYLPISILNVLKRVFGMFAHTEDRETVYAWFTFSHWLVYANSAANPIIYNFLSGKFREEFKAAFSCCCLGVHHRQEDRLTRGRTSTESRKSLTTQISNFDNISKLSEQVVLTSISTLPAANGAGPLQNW
Assay: IPOne (IP-1 accumulation) assay in CHO cells expressing human OX2R
Assay type: cell-based
Details: for EC50: CHO cells expressing human OX2R, IP-One assay, 2 h incubation, four parameter logistic fit, read-out: OX2R Potency, EC50; for % of maximum agonist effect (relative to Orexin A): percent effect vs mean max effect of a reference compound at 1 uM (100% activity vs Orexin A), human OX2R
Description: The utility of the compounds in accordance with the present invention as orexin receptor OX1R and/or OX2R agonists may be readily determined without undue experimentation by methodology well known in the art. Both the OX1R and/or OX2R G-coupled protein receptors (GPCRs) couple through the Gαq signaling pathway, which ultimately promotes calcium mobilization via inositol triphosphate (IP3) production. […] The utility of the compounds in accordance with the present invention as orexin receptor OX1R and/or OX2R agonists may be determined utilizing this assay.
In a typical experiment, the OX1 and OX2 receptor agonist activity is determined in accordance with the following general experimental method. Chinese hamster ovary (CHO) cells expressing human OX1R and/or the human OX2R were grown in Iscove's modified DMEM containing glutaMAX™, 1% G418, 100 U/mL penicillin, 100 μg/mL streptomycin and 10% heat-inactivated qualified fetal bovine serum (FBS). […] During this incubation, IP-one detection reagents were prepared (38:1:1 lysis buffer:D2:AB-cryptate reagents).
For each compound, data were fit to a four parameter logistic fit (ActivityBase software) and the EC50 was reported as the inflection point of the resulting curve. […] The intrinsic orexin receptor agonist activity of a compound which may be used in the present invention may be determined by these assays.

EC50 [nM]	% of maximum agonist effect (relative to Orexin A) [%]	% of maximum agonist effect (relative to Orexin A) (1 µM) [%]	SMILES
5.8	100.5		CCN(C(=O)N[C@@H](CCC(F)(F)F)C(F)(F)F)C(C)c1cc(-c2cc(F)c3nccn3c2)c(Cl)cn1 (single isomer, unassigned) [Example 15-1]
144	89.1		CCN(C(=O)NC(CC(=O)N(C)C)C(F)(F)F)[C@H](C)c1cccc(-c2cn3ccnc3c(OC)n2)c1 (single isomer, unassigned) [Example 24]
0.6	100.1		CCN(C(=O)N[C@@H](CCC(F)(F)F)C(F)(F)F)[C@H](C)c1cc(-c2cn3ccnc3c(OC)n2)c(OC)cn1 [Example 12-1, 1-ethyl-3-((S)-1,1,1,5,5,5-hexafluoropentan-2-yl)-1-((R)-1-(5-methoxy-4-(8-methoxyimidazo[1,2-a]pyrazin-6-yl)pyridin-2-yl)ethyl)urea]
37.4	100.5		C#CC(NC(=O)N(CC)[C@@H](c1cc(-c2cn3ccnc3c(OC)n2)c(OC)cn1)C(F)(F)F)C(F)(F)F (stereo partly drawn) [Example 5-3, 1-ethyl-1-((S)-2,2,2-trifluoro-1-(5-methoxy-4-(8-methoxyimidazo[1,2-a]pyrazin-6-yl)pyridin-2-yl)ethyl)-3-(1,1,1-trifluorobut-3-yn-2-yl)urea]
1.6	100.9		CCN(C(=O)N[C@@H](CCC(F)(F)F)C(F)(F)F)[C@@H](c1cc(-c2cn3ccnc3c(OC)n2)c(C)cn1)C(F)(F)F [Example 10-21, 1-ethyl-3-((S)-1,1,1,5,5,5-hexafluoropentan-2-yl)-1-((S)-2,2,2-trifluoro-1-(4-(8-methoxyimidazo[1,2-a]pyrazin-6-yl)-5-methylpyridin-2-yl)ethyl)urea]
125	95.3		CCN(C(=O)NC(COC(=O)N(C)C)C(F)(F)F)[C@H](C)c1cccc(-c2cn3ccnc3c(OC)n2)c1 (single isomer, unassigned) [Example 23]
44	99.5		CCN(C(=O)N[C@@H](CCC(F)(F)F)C(F)(F)F)[C@@H](c1cc(-c2cc(OC)n3nccc3n2)c(OC)cn1)C(F)(F)F [Example 9-8, 1-ethyl-3-((S)-1,1,1,5,5,5-hexafluoropentan-2-yl)-1-((S)-2,2,2-trifluoro-1-(5-methoxy-4-(7-methoxypyrazolo[1,5-a]pyrimidin-5-yl)pyridin-2-yl)ethyl)urea]
4.7	100.8		CCN(C(=O)N[C@@H](CCC(F)(F)F)C(F)(F)F)C(c1cc(-c2cc(OC)c3nccn3n2)c(OC)cn1)C(F)(F)F (stereo partly drawn) [Example 10-10, 1-ethyl-3-((S)-1,1,1,5,5,5-hexafluoropentan-2-yl)-1-(2,2,2-trifluoro-1-(5-methoxy-4-(8-methoxyimidazo[1,2-b]pyridazin-6-yl)pyridin-2-yl)ethyl)urea]
		100.1	CCN(C(=O)N[C@@H](C=C(C)C)C(F)(F)F)[C@H](C)c1cccc(-c2cn3ccnc3c(OC)n2)c1 [Example 20, 1-ethyl-1-((R)-1-(3-(8-methoxyimidazo[1,2-a]pyrazin-6-yl)phenyl)ethyl)-3-((S)-1,1,1-trifluoro-4-methylpent-3-en-2-yl)urea]
6.4	99.8		CCN(C(=O)N[C@@H](CCC(F)(F)F)C(F)(F)F)[C@@H](c1cc(-c2cc(OC)c3[nH]cnc3c2)c(OC)cn1)C(F)(F)F [Example 10-15, 1-ethyl-3-((S)-1,1,1,5,5,5-hexafluoropentan-2-yl)-1-((S)-2,2,2-trifluoro-1-(5-methoxy-4-(7-methoxy-1H-benzo[d]imidazol-5-yl)pyridin-2-yl)ethyl)urea]
1.5	99.6		CCN(C(=O)N[C@@H](CCC(F)(F)F)C(F)(F)F)[C@H](C)c1cccc(-c2cc(OC)c3nc(Cl)cn3c2)c1 [Example 8-10, 1-((R)-1-(3-(2-chloro-8-methoxyimidazo[1,2-a]pyridin-6-yl)phenyl)ethyl)-1-ethyl-3-((S)-1,1,1,5,5,5-hexafluoropentan-2-yl)urea]

The next lines start with the compound.

SMILES	EC50 [nM]	% of maximum agonist effect (relative to Orexin A) [%]	% of maximum agonist effect (relative to Orexin A) (1 µM) [%]
CCN(C(=O)NC(CCC1CC1)C(F)(F)F)[C@H](C)c1cccc(-c2cn3ccnc3c(OC)n2)c1 (stereo partly drawn) [Example 3-6, 3-(4-cyclopropyl-1,1,1-trifluorobutan-2-yl)-1-ethyl-1-((R)-1-(3-(8-methoxyimidazo[1,2-a]pyrazin-6-yl)phenyl)ethyl)urea]	2.6	99.7	
CCN(C(=O)N[C@@H](CCCF)C(F)(F)F)[C@@H](c1cc(-c2cn3cc(C)nc3c(OC)n2)c(OC)cn1)C(F)(F)F [Example 3-2, 1-ethyl-3-((S)-1,1,1,5-tetrafluoropentan-2-yl)-1-((S)-2,2,2-trifluoro-1-(5-methoxy-4-(8-methoxy-2-methylimidazo[1,2-a]pyrazin-6-yl)pyridin-2-yl)ethyl)urea]	3.3	102.4	
CCN(C(=O)N[C@@H](CCC(F)(F)F)C(F)(F)F)[C@H](C)c1cccc(-c2ccc3nccn3c2)c1 [Example 1-1, 1-ethyl-3-((S)-1,1,1,5,5,5-hexafluoropentan-2-yl)-1-((R)-1-(3-(imidazo[1,2-a]pyridin-6-yl)phenyl)ethyl)urea]	7.1	98.4	
CCN(C(=O)N[C@@H](C1CCCC(F)(F)C1)C(F)(F)F)[C@H](C)c1cccc(-c2cn3ccnc3c(OC)n2)c1 (single isomer, unassigned) [Example 3-1]	0.9	100.8	
CCN(C(=O)NC(C1CCCOC1)C(F)(F)F)[C@@H](c1cc(-c2cn3cc(C)nc3c(OC)n2)c(OC)cn1)C(F)(F)F (stereo partly drawn) [Example 2-47, 1-ethyl-1-((S)-2,2,2-trifluoro-1-(5-methoxy-4-(8-methoxy-2-methylimidazo[1,2-a]pyrazin-6-yl)pyridin-2-yl)ethyl)-3-(2,2,2-trifluoro-1-(tetrahydro-2H-pyran-3-yl)ethyl)urea]	16.7	100.7	
CC[C@H](NC(=O)N(CC)C(c1cc(-c2cn3ccnc3c(OC)n2)c(OC)cn1)C(F)(F)F)C(F)(F)F (stereo partly drawn) [Example 2-8, 1-ethyl-1-(2,2,2-trifluoro-1-(5-methoxy-4-(8-methoxyimidazo[1,2-a]pyrazin-6-yl)pyridin-2-yl)ethyl)-3-((S)-1,1,1-trifluorobutan-2-yl)urea]	13.3	100.0	
CCN(C(=O)N[C@@H](CCC(F)(F)F)C(F)F)[C@@H](c1cc(-c2cn3cc(C)nc3c(OC)n2)c(OC)cn1)C(F)(F)F [Example 4-1, 1-ethyl-3-((S)-1,1,5,5,5-pentafluoropentan-2-yl)-1-((S)-2,2,2-trifluoro-1-(5-methoxy-4-(8-methoxy-2-methylimidazo[1,2-a]pyrazin-6-yl)pyridin-2-yl)ethyl)urea]	4.8	101.6	
CCN(C(=O)N[C@@H](CCC(F)(F)F)C(F)(F)F)C(C)c1ccnc(-c2cn3ccnc3c(OC)n2)n1 (stereo partly drawn) [Example 2-63, 1-ethyl-3-((S)-1,1,1,5,5,5-hexafluoropentan-2-yl)-1-(1-(2-(8-methoxyimidazo[1,2-a]pyrazin-6-yl)pyrimidin-4-yl)ethyl)urea]	1060	96.2	
CCOC(=O)CC(NC(=O)N(CC)[C@H](C)c1cccc(-c2cn3ccnc3c(OC)n2)c1)C(F)(F)F (stereo partly drawn) [Example 1-11, ethyl 3-(3-ethyl-3-((R)-1-(3-(8-methoxyimidazo[1,2-a]pyrazin-6-yl)phenyl)ethyl)ureido)-4,4,4-trifluorobutanoate]	20.1	98.0	
CCN(C(=O)N[C@@H](C)C(F)(F)F)C(c1cnc(OC)c(-c2cn3ccnc3c(OC)n2)c1)C(F)(F)F (stereo partly drawn) [Example 2-62, 1-ethyl-1-(2,2,2-trifluoro-1-(6-methoxy-5-(8-methoxyimidazo[1,2-a]pyrazin-6-yl)pyridin-3-yl)ethyl)-3-((S)-1,1,1-trifluoropropan-2-yl)urea]	13.1	95.6	
CCC(CC(C)C(F)(F)F)NC(=O)N(CC)[C@H](C)c1cccc(-c2cn3ccnc3c(OC)n2)c1 (stereo partly drawn) [Example 2-3, 1-ethyl-1-((R)-1-(3-(8-methoxyimidazo[1,2-a]pyrazin-6-yl)phenyl)ethyl)-3-(6,6,6-trifluoro-5-methylhexan-3-yl)urea]	4.6	100.6	
